Source: patent publication US20250163104A1, “MACROCYCLIC IMMUNOMODULATORS” (priority 2021, published 2025)
pIC50: −log10 of the molar value. Where a SMILES comes first, the peptide text is derived from it. Bridges are numbered along the chain shown (N, C = ends). [ ]: non-standard residue; d: D form. The star is where a group is joined. Bip(4'-COOH) = N[C@@H](Cc1ccc(-c2ccc(C(=O)O)cc2)cc1)C(=O)O; Phe(4-COOH) = N[C@@H](Cc1ccc(C(=O)O)cc1)C(=O)O; Bip = N[C@@H](Cc1ccc(-c2ccccc2)cc1)C(=O)O; Phe(3-F) = N[C@@H](Cc1cccc(F)c1)C(=O)O; Phe(3-Me) = Cc1cccc(C[C@H](N)C(=O)O)c1; Val(3-OH) = CC(C)(O)[C@H](N)C(=O)O; 4Pal = N[C@@H](Cc1ccncc1)C(=O)O; Cha = N[C@@H](CC1CCCCC1)C(=O)O; Cit = NC(=O)NCCC[C@H](N)C(=O)O; Carboxymethyl = O=C(O)C*; Nle = CCCC[C@H](N)C(=O)O; Orn = NCCC[C@H](N)C(=O)O; Pra = C#CC[C@H](N)C(=O)O; Dab = NCC[C@H](N)C(=O)O; Dap = NC[C@H](N)C(=O)O; NHCH2CH2OMe = COCCN*

Biological target: T1, human PD-1 / PD-L1-Ig binding on Jurkat cell line over-expressing human PD-1 (Jurkat-PD-1) (Homo sapiens, UniProt Q15116)
T1 construct: expressed in transfected cells; host or cells: Jurkat
T1 sequence (Q15116 25-288): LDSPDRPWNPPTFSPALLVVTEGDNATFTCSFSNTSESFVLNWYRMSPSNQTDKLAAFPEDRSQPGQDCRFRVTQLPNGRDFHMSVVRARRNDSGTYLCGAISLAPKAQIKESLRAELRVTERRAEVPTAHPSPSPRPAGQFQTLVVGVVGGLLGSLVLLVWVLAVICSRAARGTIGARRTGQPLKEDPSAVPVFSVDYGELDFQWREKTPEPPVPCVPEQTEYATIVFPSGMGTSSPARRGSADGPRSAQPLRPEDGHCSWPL
Assay: Jurkat-PD-1 Cell Binding High-Content Screening Assay (CBA)
Format: cell-based
Conditions: Jurkat-PD-1 cells, PE-labeled PD-L1-Ig 20 nM final; read-out: Jurkat HPD1_PDL1 IC50
How it was run: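 Binding of fluorescent PD-L1-Ig (phycoerythrin linked via the Ig tag, 20 nM final) to PD-1-overexpressing Jurkat cells was imaged after a 2 h, 37° C compound pretreatment and 1 hour ligand incubation.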

pIC50	SMILES
7.09	CCCC[C@@H]1NC(=O)[C@H](CCCNC(=N)N)NC(=O)[C@@H](CC(C)C)NC(=O)[C@H](CCCN)NC(=O)[C@H](CCCNC(N)=O)NC(=O)[C@H](Cc2ccc(-c3ccccc3)cc2)NC(=O)[C@H](C(C)C)NC(=O)[C@H](Cc2c[nH]c3ccccc23)NC(=O)[C@H](CC(=O)O)NC(=O)[C@H](Cc2ccc(O)cc2)NC(=O)[C@H](CN)NC(=O)CSC[C@@H](C(=O)N[C@@H](C)C(N)=O)NC(=O)[C@H]([C@@H](C)O)NC(=O)[C@H](C(C)C)NC1=O [Compound 1175] ({CH2CO}-[Dap]YDWV[Bip][Cit][Orn][dL]R[Nle]VTCA-NH2; thioether N-14)
8.14	COCCNC(=O)[C@H](CCN)NC(=O)[C@@H]1CSCC(=O)N[C@@H]([C@@H](C)O)C(=O)N[C@@H](Cc2ccc(C(=O)O)cc2)C(=O)N[C@@H](CC(=O)O)C(=O)N[C@@H](Cc2cccc(C)c2)C(=O)N[C@@H](Cc2ccc(OCC(=O)O)cc2)C(=O)N[C@@H](Cc2ccc(-c3ccccc3)cc2)C(=O)N[C@@H](Cc2ccc(OCC(=O)O)cc2)C(=O)N[C@@H](CCCN)C(=O)N[C@H](CC(C)C)C(=O)N[C@@H](CCN)C(=O)N[C@@H](CC2CCCCC2)C(=O)N[C@@H](C(C)(C)O)C(=O)N[C@@H](CO)C(=O)N1 [Compound 2077] ({CH2CO}-T[Phe(4-COOH)]D[Phe(3-Me)]Y(Carboxymethyl)[Bip]Y(Carboxymethyl)[Orn][dL][Dab][Cha][Val(3-OH)]SC[Dab]-NHCH2CH2OMe; thioether N-14)
7.02	Cc1cccc(C[C@@H]2NC(=O)[C@H](CC(=O)O)NC(=O)[C@H](Cc3ccncc3)NC(=O)[C@H](CN)NC(=O)CSC[C@@H](C(N)=O)NC(=O)[C@H]([C@@H](C)O)NC(=O)[C@H](C(C)C)NC(=O)[C@H](CC(C)C)NC(=O)[C@H](CCN)NC(=O)[C@@H](CC(C)C)NC(=O)[C@H](CCCN)NC(=O)[C@H](C(C)C)NC(=O)[C@H](Cc3ccc(-c4ccccc4)cc3)NC(=O)[C@H](C(C)C)NC2=O)c1 [Compound 1550] ({CH2CO}-[Dap][4Pal]D[Phe(3-Me)]V[Bip]V[Orn][dL][Dab]LVTC-NH2; thioether N-14)
7.84	CC(C)C[C@@H]1NC(=O)[C@H](CCN)NC(=O)[C@@H](CC(C)C)NC(=O)[C@H](CN)NC(=O)[C@H](C(C)C)NC(=O)[C@H](Cc2ccc(-c3ccccc3)cc2)NC(=O)[C@H](C(C)C)NC(=O)[C@H](Cc2c[nH]c3ccccc23)NC(=O)[C@H](CC(=O)O)NC(=O)[C@H](Cc2ccc(O)cc2)NC(=O)[C@H](CC(N)=O)NC(=O)CSC[C@@H](C(=O)N[C@@H](C)C(N)=O)NC(=O)[C@H]([C@@H](C)O)NC(=O)[C@H](C(C)C)NC1=O [Compound 1028] ({CH2CO}-NYDWV[Bip]V[Dap][dL][Dab]LVTCA-NH2; thioether N-14)
8.02	CCCC[C@@H]1NC(=O)[C@H](CCN)NC(=O)[C@@H](CC(C)C)NC(=O)[C@H](CCCN)NC(=O)[C@H](C(C)C)NC(=O)[C@H](Cc2ccc(-c3ccccc3)cc2)NC(=O)[C@H](CC(C)C)NC(=O)[C@H](Cc2c[nH]c3ccccc23)NC(=O)[C@H](CC(=O)O)NC(=O)[C@H](Cc2ccncc2)NC(=O)[C@H](Cc2ccc(OCC(=O)O)cc2)NC(=O)CSC[C@@H](C(=O)NCC(N)=O)NC(=O)[C@H](CO)NC(=O)[C@H](C(C)C)NC1=O [Compound 1411] ({CH2CO}-Y(Carboxymethyl)[4Pal]DWL[Bip]V[Orn][dL][Dab][Nle]VSCG-NH2; thioether N-14)
7.80	CC(C)C[C@@H]1NC(=O)[C@H](Cc2c[nH]c3ccccc23)NC(=O)[C@H](CC(=O)O)NC(=O)[C@H](Cc2ccncc2)NC(=O)[C@H](Cc2ccc(OCC(=O)O)cc2)NC(=O)CSC[C@@H](C(=O)NCC(N)=O)NC(=O)[C@H](CO)NC(=O)[C@H](C(C)C)NC(=O)[C@H](CC2CCCCC2)NC(=O)[C@H](CCN)NC(=O)[C@@H](CC(C)C)NC(=O)[C@H](CCCN)NC(=O)[C@H](C(C)C)NC(=O)[C@H](Cc2ccc(-c3ccccc3)cc2)NC1=O [Compound 1406] ({CH2CO}-Y(Carboxymethyl)[4Pal]DWL[Bip]V[Orn][dL][Dab][Cha]VSCG-NH2; thioether N-14)
7.60	CCC(C)[C@@H]1NC(=O)[C@H](Cc2ccc(-c3ccccc3)cc2)NC(=O)[C@H](C(C)C)NC(=O)[C@H](Cc2cccc(C)c2)NC(=O)[C@H](CC(=O)O)NC(=O)[C@H](Cc2ccc(-c3cccc(C(=O)O)c3)cc2)NC(=O)[C@H](Cc2ccncc2)NC(=O)CSC[C@@H](C(=O)N[C@@H](C)C(N)=O)NC(=O)[C@H]([C@@H](C)O)NC(=O)[C@H](C(C)C)NC(=O)[C@H](CC2CCCCC2)NC(=O)[C@H](CCN)NC(=O)[C@@H](CC(C)C)NC(=O)[C@H](CCCN)NC1=O (stereo partly drawn) [Compound 2226]
6.61	C#CC[C@H](NC(=O)[C@H](CCN)NC(=O)[C@@H]1CSCC(=O)N[C@@H](Cc2ccncc2)C(=O)N[C@@H](Cc2ccc(C(=O)O)cc2)C(=O)N[C@@H](CC(=O)O)C(=O)N[C@@H](Cc2cccc(C)c2)C(=O)N[C@@H](Cc2ccc(OCC(=O)O)cc2)C(=O)N[C@@H](Cc2ccc(-c3ccccc3)cc2)C(=O)N[C@@H](Cc2ccc(OCC(=O)O)cc2)C(=O)N[C@@H](CCCN)C(=O)N[C@H](CC(C)C)C(=O)N[C@@H](CCN)C(=O)N[C@@H](CC2CCCCC2)C(=O)N[C@@H](C(C)(C)O)C(=O)N[C@@H](CO)C(=O)N1)C(=O)O [Compound 2324] ({CH2CO}-[4Pal][Phe(4-COOH)]D[Phe(3-Me)]Y(Carboxymethyl)[Bip]Y(Carboxymethyl)[Orn][dL][Dab][Cha][Val(3-OH)]SC[Dab][Pra]-OH; thioether N-14)
7.76	CC(C)C[C@H]1NC(=O)[C@H](CCCN)NC(=O)[C@H](CCC(=O)O)NC(=O)[C@H](Cc2ccc(-c3ccccc3)cc2)NC(=O)[C@H](C(C)C)NC(=O)[C@H](Cc2c[nH]c3ccccc23)NC(=O)[C@H](CC(=O)O)NC(=O)[C@H](Cc2ccc(-c3ccc(C(=O)O)cc3)cc2)NC(=O)[C@H](Cc2ccccc2)NC(=O)CSC[C@@H](C(=O)N[C@@H](C)C(N)=O)NC(=O)[C@H]([C@@H](C)O)NC(=O)[C@H](C(C)C)NC(=O)[C@H](CC2CCCCC2)NC(=O)[C@H](CCN)NC1=O [Compound 2167] ({CH2CO}-F[Bip(4'-COOH)]DWV[Bip]E[Orn][dL][Dab][Cha]VTCA-NH2; thioether N-14)
8.22	C#CC[C@H](NC(=O)[C@H](CCN)NC(=O)[C@@H]1CSCC(=O)N[C@@H](CN)C(=O)N[C@@H](Cc2ccc(C(=O)O)cc2)C(=O)N[C@@H](CC(=O)O)C(=O)N[C@@H](Cc2cccc(C)c2)C(=O)N[C@@H](Cc2ccc(C(=O)O)cc2)C(=O)N[C@@H](Cc2ccc(-c3ccccc3)cc2)C(=O)N[C@@H](Cc2ccc(C(=O)O)cc2)C(=O)N[C@@H](CCCN)C(=O)N[C@H](CC(C)C)C(=O)N[C@@H](CCN)C(=O)N[C@@H](CC2CCCCC2)C(=O)N[C@@H](C(C)(C)O)C(=O)N[C@@H](CCCN)C(=O)N1)C(N)=O [Compound 1856] ({CH2CO}-[Dap][Phe(4-COOH)]D[Phe(3-Me)][Phe(4-COOH)][Bip][Phe(4-COOH)][Orn][dL][Dab][Cha][Val(3-OH)][Orn]C[Dab][Pra]-NH2; thioether N-14)
7.42	CC(C)C[C@@H]1NC(=O)[C@H](Cc2c[nH]c3ccccc23)NC(=O)[C@H](CC(=O)O)NC(=O)[C@H](Cc2ccc(O)cc2)NC(=O)[C@H](Cc2ccccc2)NC(=O)CSC[C@@H](C(=O)NCC(N)=O)NC(=O)[C@H](CO)NC(=O)[C@H](C(C)C)NC(=O)[C@H](CC(C)C)NC(=O)[C@H](CC(N)=O)NC(=O)[C@@H](CC(C)C)NC(=O)[C@H](CN)NC(=O)[C@H](C(C)C)NC(=O)[C@H](Cc2ccc(-c3ccccc3)cc2)NC1=O [Compound 1274] ({CH2CO}-FYDWL[Bip]V[Dap][dL]NLVSCG-NH2; thioether N-14)
7.15	Cc1ccc(C[C@@H]2NC(=O)[C@H](CC(=O)O)NC(=O)[C@H](Cc3ccc(OCC(=O)O)cc3)NC(=O)[C@H](CN)NC(=O)CSC[C@@H](C(=O)N[C@@H](C)C(N)=O)NC(=O)[C@H]([C@@H](C)O)NC(=O)[C@H](C(C)C)NC(=O)[C@H](CC3CCCCC3)NC(=O)[C@H](CCN)NC(=O)[C@@H](CC(C)C)NC(=O)[C@H](CCCN)NC(=O)[C@H](CCC(=O)O)NC(=O)[C@H](Cc3ccc(-c4ccccc4)cc3)NC(=O)[C@H](C(C)C)NC2=O)cc1 [Compound 2139]
7.79	CC(C)C[C@@H]1NC(=O)[C@H](Cc2c[nH]c3ccccc23)NC(=O)[C@H](CC(=O)O)NC(=O)[C@H](Cc2ccc(O)cc2)NC(=O)[C@H](Cc2ccccc2)NC(=O)CSC[C@@H](C(=O)NCC(N)=O)NC(=O)[C@H]([C@@H](C)O)NC(=O)[C@H](C(C)C)NC(=O)[C@H](CC(C)C)NC(=O)[C@H](CCN)NC(=O)[C@@H](CC(C)C)NC(=O)[C@H](CCN)NC(=O)[C@H](C(C)C)NC(=O)[C@H](Cc2ccc(-c3ccccc3)cc2)NC1=O [Compound 1060] ({CH2CO}-FYDWL[Bip]V[Dab][dL][Dab]LVTCG-NH2; thioether N-14)
6.64	CC(C)C[C@@H]1NC(=O)[C@H](Cc2c[nH]c3ccccc23)NC(=O)[C@H](CC(=O)O)NC(=O)[C@H](Cc2ccc(O)cc2)NC(=O)[C@H](Cc2ccccc2)NC(=O)CSC[C@@H](C(=O)N[C@@H](C)C(N)=O)NC(=O)[C@H]([C@@H](C)O)NC(=O)[C@H](C(C)C)NC(=O)[C@H](CC(C)C)NC(=O)[C@H](CC(N)=O)NC(=O)[C@@H](C)NC(=O)[C@H](CCCN)NC(=O)[C@H](C(C)C)NC(=O)[C@H](Cc2ccc(-c3ccccc3)cc2)NC1=O [Compound 1092] ({CH2CO}-FYDWL[Bip]V[Orn][dA]NLVTCA-NH2; thioether N-14)
7.64	CC[C@H](C)[C@@H]1NC(=O)[C@H](Cc2ccc(-c3ccccc3)cc2)NC(=O)[C@H](C(C)C)NC(=O)[C@H](Cc2c[nH]c3ccccc23)NC(=O)[C@H](CC(=O)O)NC(=O)[C@H](Cc2ccc(OCC(=O)O)cc2)NC(=O)[C@H](Cc2ccc(OCC(=O)O)cc2)NC(=O)CSC[C@@H](C(=O)N[C@@H](C)C(N)=O)NC(=O)[C@H]([C@@H](C)O)NC(=O)[C@H](C(C)C)NC(=O)[C@H](Cc2cccc(F)c2)NC(=O)[C@H](CCN)NC(=O)[C@@H](CC(C)C)NC(=O)[C@H](CCCN)NC1=O [Compound 1671] ({CH2CO}-Y(Carboxymethyl)Y(Carboxymethyl)DWV[Bip]I[Orn][dL][Dab][Phe(3-F)]VTCA-NH2; thioether N-14)
